Experimental findings from patent US11731977B2, “SGC stimulators” (Cyclerion Therapeutics, Inc., priority 2016, dated 2023) are described below.

The target of one series is T1, sGC enzyme (Homo sapiens, UniProt Q02108+Q02153).
T1 construct: sGC enzyme activity values in HEK cells, determined by the GloSensor assay; host or cells: HEK293 cells stably expressing GloSensor 40F cGMP biosensor
T1 sequence (Q02153 1-619): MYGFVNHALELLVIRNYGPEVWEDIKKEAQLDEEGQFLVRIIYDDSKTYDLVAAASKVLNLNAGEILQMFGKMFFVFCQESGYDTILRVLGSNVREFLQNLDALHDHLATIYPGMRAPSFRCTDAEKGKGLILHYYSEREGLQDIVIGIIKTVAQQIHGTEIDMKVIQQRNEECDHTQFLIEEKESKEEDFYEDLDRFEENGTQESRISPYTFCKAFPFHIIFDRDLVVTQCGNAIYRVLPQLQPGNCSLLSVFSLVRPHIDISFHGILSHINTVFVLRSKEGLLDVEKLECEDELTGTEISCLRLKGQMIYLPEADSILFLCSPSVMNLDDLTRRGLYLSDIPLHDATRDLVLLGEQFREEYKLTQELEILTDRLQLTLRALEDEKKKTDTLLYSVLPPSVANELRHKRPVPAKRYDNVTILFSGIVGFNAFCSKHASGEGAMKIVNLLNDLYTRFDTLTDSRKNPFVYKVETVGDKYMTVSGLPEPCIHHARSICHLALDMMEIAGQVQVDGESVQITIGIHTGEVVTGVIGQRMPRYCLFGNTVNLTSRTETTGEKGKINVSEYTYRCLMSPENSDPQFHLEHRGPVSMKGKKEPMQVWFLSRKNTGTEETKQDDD
T1 sequence (Q02108 1-690): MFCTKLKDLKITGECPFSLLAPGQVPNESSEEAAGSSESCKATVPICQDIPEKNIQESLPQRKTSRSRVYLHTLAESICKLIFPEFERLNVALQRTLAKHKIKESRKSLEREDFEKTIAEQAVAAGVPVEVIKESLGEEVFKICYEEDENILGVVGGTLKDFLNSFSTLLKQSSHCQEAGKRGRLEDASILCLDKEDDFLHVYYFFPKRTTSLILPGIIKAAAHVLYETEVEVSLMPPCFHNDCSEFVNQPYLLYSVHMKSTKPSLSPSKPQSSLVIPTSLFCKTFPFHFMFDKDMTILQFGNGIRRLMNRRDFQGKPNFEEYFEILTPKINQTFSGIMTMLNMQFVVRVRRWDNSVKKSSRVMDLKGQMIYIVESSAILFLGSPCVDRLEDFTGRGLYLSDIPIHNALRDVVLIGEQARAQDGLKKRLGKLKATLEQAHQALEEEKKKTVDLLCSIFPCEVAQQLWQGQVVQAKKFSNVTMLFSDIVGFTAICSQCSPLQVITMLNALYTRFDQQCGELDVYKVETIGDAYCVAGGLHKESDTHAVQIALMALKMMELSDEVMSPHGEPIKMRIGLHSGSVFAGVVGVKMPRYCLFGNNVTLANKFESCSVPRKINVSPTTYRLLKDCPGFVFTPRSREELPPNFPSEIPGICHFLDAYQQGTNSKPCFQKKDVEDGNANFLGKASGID
The experiment in a line: cGMP GloSensor cell-based assay, 384-well format (Example 2a). Particulars: HEK293 GloSensor 40F cGMP cells; 10 μM DETA-NONOate; 50% of high control (30 μM Compound Y); read-out: Abs EC50. From the text:
Human embryonic kidney cells (HEK293) cells expressing GloSensor™ 40F cGMP (Part No: CS182801, Promega) were used to evaluate the activity of test compounds. The luminescent biosensors (engineered luciferase) that were incorporated into these cells detect cGMP formed by the compounds stimulating the sGC enzyme and emit luminescence.
cGMP GloSensor cells were maintained in Dulbecco's Modification of Eagle's Medium (DMEM) supplemented with fetal bovine serum (FBS, 10% final) and hygromycine (200 ug/ml). The day before assay, cells were plated in DMEM with 10% FBS in a 50 μL volume at a density of 1.5×10^4 cells/well in a poly-D-lysine coated 384-well flat white-bottom plate (Corning Cat No 35661). Cells were incubated overnight at 37° C. in a humidified chamber with 5% CO2. The next day, medium was removed and cells were replaced with 40 ul/well of GloSensor™, 2 mM (Promega Cat No E1291). Cells were treated for 90 minutes at 25° C. to allow the substrate to equilibrate in the cells. Test compounds and Diethylenetriamine NONOate (DETA-NONOate, or DETA-NO) was diluted to 3 mM (20×) in serum-free CO2 independent medium and serially diluted at 4× dilutions to create 5× dose curve from which 10 ul was added to the wells (x μM concentration for test compound solution and 10 μM concentration for DETA-NONOate solution; wherein x is one of the following final concentrations: 30000 nM, 7500 nM, 1875 nM, 468.8 nM, 117.2 nM, 29.29 nM, 7.320 nM, 1.830 nM, 0.460 nM, 0.114 nM, and 0.029 nM).
For the kinetics studies, luminescense was measured right away for 0.2 sec per well with Envision (Perkin Elmer). For endpoint SAR screening, data were collected after 55 min incubation at room temperature.
Data were normalized to a high control using the following equation: 100*(Sample−Low Control)/(High Control−Low Control), where the low control is the average of 16 samples treated with 1% DMSO, and the high control is the average of 16 samples treated with 30 μM of Compound Y depicted below. Data were fit using a 4-parameter fit (log(agonist) vs. response—variable slope) using GraphPad Prism Software v.5. n=2 for all compounds. The Absolute (Abs) EC50 was interpolated from the curve fit and is defined as the concentration at which a given compound elicits 50% of the high control response after data normalization as indicated above. Compounds failing to elicit a minimum response of 50% are reported as >30 μM or ND. For compounds run in duplicate or n higher than 2, the result herein given is the geometric mean of the several results obtained.

The subject of series [1] is cGMP in rat primary neurons. Kind of series: cGMP neuronal cell-based assay (Example 3). Particulars: Primary neuron; rat primary hippocampal neurons; 30 μM DETA-NO; cGMP by LC-MS/MS; 50% of high control (10 μM Compound Y); read-out: Abs EC50. The protocol: Rat primary neurons were isolated from fetuses of 18-day pregnant Sprague-Dawley females. The fetuses were collected in Hanks' balanced salt solution (HBSS) and brains were rapidly removed. The cerebral hippocampi were isolated and mechanically fragmented. Further tissue digestion was performed with 0.25% (wt/vol) trypsin solution in HBSS without Ca2+ and Mg2+ for 15 min at 37° C. After trypsination, cells were washed and resuspended in neurobasal medium supplemented with 0.5 mM L-glutamine, 12.5 uM glutamic acid, 2% B-27 and 100 U/mL penicillin, and 100 μg/mL streptomycin. Cells were plated at a density of 4×10^4 cells/well in a poly-D-lysine coated 384-well flat clear-bottom plate (Corning Cat No 354662). Cells were incubated 6-7 days at 37° C. in a humidified chamber with 5% CO2. Media was removed and cells were washed 1× with HBSS containing Ca2+ and Mg2+, and replaced with 40 uL HBSS containing 0.5 mM IBMX, and incubated for 15 minutes at 37° C. 10 uL of a 5× stock of test compounds with diethylenetriamine NONOate (DETA-NO) was added. Final concentration of DETA-NO was 30 μM. Cells were incubated for 20 min at 37° C. Medium was removed, 50 uL of ice-cold 10% acetic acid was added, and incubated for 60 minutes at 4° C. Following centrifugation at 4° C. for 5 minutes at 1000×g to pellet cell debris, the supernatant was aspirated to a clean plate and the samples were analyzed for cGMP content. cGMP concentrations were determined from each sample using LC-MS/MS.
Data were normalized to a high control using the following equation: 100*(Sample−Low Control)/(High Control−Low Control), where the low control is the average of 15 samples treated with 1% DMSO, and the high control is the average of 15 samples treated with 10 μM a known sGC stimulator Compound Y. Data were fit using a 4-parameter fit (log(agonist) vs. response—variable slope) using GraphPad Prism Software v.5. n=2 for all compounds. The Absolute EC50 was interpolated from the curve fit and is defined as the concentration at which a given compound elicits 50% of the high control response. Compounds failing to elicit a minimum response of 50% are reported as >30 μM. For compounds run in duplicate or n higher than 2, the result herein given is the geometric mean of the several results obtained.

Series [2] can be described thus: Rat cerebrospinal fluid (CSF) pharmacokinetic properties (Example 4). The format is in vivo. To be noted: male, Sprague-Dawley, 10 mg/kg PO, 1 h; for Kp uu at 1 h: unbound CSF/unbound plasma, read-out: Kp,uu (@ 1 h); for concentration at 1 h: CSF, read-out: CSF Conc. (nM @ 1 h). The protocol:
Protocol PK in rats was determined following oral dosing. For the oral (PO) experiments, a group of 6 male Sprague-Dawley rats with an indwelling catheter placed in the cistema magna were used. The PO group was dosed with 10 mg/kg or 1 mg/kg of a compound formulated as a solution in PEG400. PO doses were administered by oral gavage and delivered to the stomach using a syringe and gavage tube. Following oral dosage administration, the gavage tube was flushed with approximately 0.5 mL of water to ensure complete delivery of the full dose.
Plasma samples were collected as follows: samples of CSF and blood were collected at 1 hour, 2, and optionally at 4 hours post-dosing. CSF samples (0.05 mL) were collected through the intracisternal catheter. Blood samples (0.25 mL) were collected through retro-orbital sampling. These samples were kept on ice until processed for plasma. Blood samples were centrifuged at 3200 rpm for 5 minutes at approximately 5° C. within 1 hour of collection. Plasma was directly transferred to a 96-well plate tube (0.125 mL). Plug caps were placed on the tubes and the tubes frozen at approximately −70° C. and stored until analysis. Plasma was collected and analyzed for the presence of a compound.
Quantitation of Compounds. The compound in question and the internal standard were extracted from plasma and CSF by precipitation. Samples were analyzed using liquid chromatography (LC) with tandem mass spectrometric detection (MS/MS) using electrospray ionization. The standard curve range was from 1 to 1000 ng/mL. Results of the compounds described herein in this assay are illustrated in Table 4a below (10 mg/kg dose) and Tables 4b and 4c below (1 mg/kg).
Kp,uu is defined as the concentration ratio of unbound drug in CSF to unbound drug in plasma. Unbound drug in plasma (or free plasma concentration) is calculated by multiplying the total plasma concentration by the unbound fraction as determined by plasma protein binding. The CSF concentration is then divided by the free plasma concentration to determine the Kp,uu. (See e.g., Di et al., J. Med. Chem., 56, 2-12 (2013))

pEC50: −log10 of the molar value. Bounds are passed on as bounds.

For orientation: pEC50 means −log10 of the EC50, conventionally taken in molar units. On to `Fc1ccccc1Cc1nc(-c2nc(C(F)(F)C(F)(F)F)n[nH]2)cn2ccnc12` [Compound I-5, 8-(2-Fluorobenzyl)-6-(3-(perfluoroethyl)-1H-1,2,4-triazol-5-yl)imidazo[1,2-a]pyrazine], for which the pEC50 (on sGC enzyme; in series [1]) was no less than 7.00 in each case.

For the molecule `FC(F)(F)c1n[nH]c(-c2cn3ccnc3c(Cc3ccccc3)n2)n1` [Compound I-6, 8-Benzyl-6-(3-(trifluoromethyl)-1H-1,2,4-triazol-5-yl)imidazo[1,2-a]pyrazine], the pEC50 at sGC enzyme is 6.00 to 7.00; in series [1], no less than 7.00.

As for `FC(F)c1n[nH]c(-c2cn3ccnc3c(Cc3ccccc3)n2)n1` [Compound I-7, 8-Benzyl-6-(3-(difluoromethyl)-1H-1,2,4-triazol-5-yl)imidazo[1,2-a]pyrazine], the pEC50 (on sGC enzyme; in series [1]) was 6.00 to 7.00 throughout.

On to `Fc1ccc(F)c(Cc2nc(-c3nc(C(F)(F)F)n[nH]3)cn3ccnc23)c1` [Compound I-8, 8-(2,5-Difluorobenzyl)-6-(3-(trifluoromethyl)-1H-1,2,4-triazol-5-yl)imidazo[1,2-a]pyrazine], for which the pEC50 (at sGC enzyme; in series [1]) was no less than 7.00 throughout.

With `Fc1ccc(F)c(Cc2nc(-c3nc(C(F)F)n[nH]3)cn3ccnc23)c1` [Compound I-9, 8-(2,5-Difluorobenzyl)-6-(3-(difluoromethyl)-1H-1,2,4-triazol-5-yl)imidazo[1,2-a]pyrazine], the pEC50 (at sGC enzyme; in series [1]) was no less than 7.00 each time.

For `Fc1ccc(Cc2nc(-c3nc(C(F)(F)F)n[nH]3)cn3ccnc23)cc1` [Compound I-12, 8-(4-Fluorobenzyl)-6-(3-(trifluoromethyl)-1H-1,2,4-triazol-5-yl)imidazo[1,2-a]pyrazine], the pEC50 (on sGC enzyme; in series [1]) was 6.00 to 7.00 in each case.

`FC(F)(F)c1n[nH]c(-c2cn3ccnc3c(CCC(F)(F)C(F)(F)F)n2)n1` [Compound I-13, 8-(3,3,4,4,4-Pentafluorobutyl)-6-(3-(trifluoromethyl)-1H-1,2,4-triazol-5-yl)imidazo[1,2-a]pyrazine]: the pEC50 (on sGC enzyme; in series [1]) was less than 6.00 each time.

Regarding `Cc1ccc(Cc2nc(-c3nc(C(F)(F)F)n[nH]3)cn3ccnc23)cc1F` [Compound I-27, 8-(3-Fluoro-4-methylbenzyl)-6-(3-(trifluoromethyl)-1H-1,2,4-triazol-5-yl)imidazo[1,2-a]pyrazine], the pEC50 on sGC enzyme is no less than 7.00. In series [2], the Kp uu at 1 h is 0.2 and the concentration at 1 h stood at 41 nM.

Consider `Cc1ccc(Cc2nc(-c3nc(C(F)F)n[nH]3)cn3ccnc23)cc1F` [Compound I-28, 6-(3-(Difluoromethyl)-1H-1,2,4-triazol-5-yl)-8-(3-fluoro-4-methylbenzyl)imidazo[1,2-a]pyrazine], for which the pEC50 on sGC enzyme was no less than 7.00. In series [2], the Kp uu at 1 h was determined as 0.2 and the concentration at 1 h is 20 nM.
